Test results as given in US9090596B2, “Disubstituted 3,4-diamino-3-cyclobutene-1,2-dione compounds for use in the treatment of chemokine-mediated pathologies” (GALDERMA RESEARCH & DEVELOPMENT, priority 2011, dated 2015).

Tests used:
[1] = target: CXCR1 receptor (Homo sapiens (Human), UniProt P25024); test: β-arrestin 2 recruitment test, U2OS hCXCR1 β-arrestin cells stimulated with CXCL8; assay type: cell-based; conditions: CXCL8 stimulation
Method: (§1) The in vitro affinity of the compounds of the present invention for the CXCR1 and CXCR2 receptors was determined on a functional test of the β-arrestin recruitment type after receptor activation.
(§2) β-Arrestin Recruitment Assay:
(§3) “PathHunter HEK293-CXCR2” or “U2OS hCXCR1 β-arrestin” cells (DiscoveRx Corporation) were seeded overnight at 10 000 cells/well (384-well format) in 20 μl of Opti MEM I medium. A preincubation with the antagonist or the vehicle for 30 min at 37° C. and 5% CO2 was followed by 60 minutes of stimulation with CXCL8 at 37° C. and 5% CO2. The cells were then placed at ambient temperature for 30 minutes. The PathHunter detection reagent (DiscoveRx Corporation) was added. […] The data were analyzed by means of a non-linear curve procedure using the XLFit4 exploitation software (IDBS) and the IC50 values were determined.

[2] = target: CXCR2 receptor (Homo sapiens (Human), UniProt P25025); test: β-arrestin 2 recruitment test, PathHunter HEK293-CXCR2 cells stimulated with CXCL8; assay type: cell-based; conditions: CXCL8 stimulation
Sequence of CXCR2 receptor (P25025 whole entry): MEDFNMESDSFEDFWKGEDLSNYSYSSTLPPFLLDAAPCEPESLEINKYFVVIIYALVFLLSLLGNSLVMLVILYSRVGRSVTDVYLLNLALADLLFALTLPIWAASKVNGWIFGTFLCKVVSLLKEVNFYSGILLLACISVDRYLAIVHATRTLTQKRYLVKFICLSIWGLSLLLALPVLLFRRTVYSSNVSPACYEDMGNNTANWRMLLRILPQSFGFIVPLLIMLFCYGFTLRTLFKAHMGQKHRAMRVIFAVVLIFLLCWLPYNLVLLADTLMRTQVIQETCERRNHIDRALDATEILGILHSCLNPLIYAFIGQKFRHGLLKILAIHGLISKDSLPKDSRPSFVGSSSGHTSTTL
Method: as §1, §2, §3

[3] = target: CCR4 (Homo sapiens (Human), UniProt P51679); test: Receptor profiling: calcium flux (FLIPR TETRA) on Chem-1 cells expressing chemokine receptor; assay type: cell-based; set-up: key to IC50 CCR4: IA: Inactive; conditions: antagonist activity, reference agonist at AC80
Sequence of CCR4 (P51679 whole entry): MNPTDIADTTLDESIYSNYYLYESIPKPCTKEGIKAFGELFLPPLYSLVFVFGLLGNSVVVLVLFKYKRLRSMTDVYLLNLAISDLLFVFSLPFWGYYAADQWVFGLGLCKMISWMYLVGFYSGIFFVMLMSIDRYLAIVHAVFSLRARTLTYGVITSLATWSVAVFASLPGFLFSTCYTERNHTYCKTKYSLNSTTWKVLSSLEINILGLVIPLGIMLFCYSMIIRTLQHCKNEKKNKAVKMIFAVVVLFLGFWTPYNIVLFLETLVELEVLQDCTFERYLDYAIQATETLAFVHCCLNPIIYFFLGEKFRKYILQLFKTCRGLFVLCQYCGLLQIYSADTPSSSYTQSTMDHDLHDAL
Method: (§4) Measurement of Calcium Flux on Cells:
(§5) The experiments were carried out on the FLIPR TETRA® platform from Molecular Devices. After the basal level had been read, the compounds were added to the cells expressing the chemokine receptor of interest and the agonist activity was read at 10 seconds.
(§6) Each cell line expressing a chemokine receptor was established on the basis of the Chem-1 cell stably expressing the recombinant form of the chemokine receptor and also an associated G protein, with the aim of coupling the receptor to the calcium signalling pathway. 21 receptors belonging to the chemokine receptor family (CCRs and CXCRs) were analyzed. All the CXCR2 antagonists were tested in a dose-dependent manner and the concentration corresponding to 50% inhibition of the response was determined (IC50).

[4] = target: CXCR3 (Homo sapiens (Human), UniProt P49682); test: as above; assay type: cell-based; conditions: antagonist activity, reference agonist at AC80
Sequence of CXCR3 (P49682 whole entry): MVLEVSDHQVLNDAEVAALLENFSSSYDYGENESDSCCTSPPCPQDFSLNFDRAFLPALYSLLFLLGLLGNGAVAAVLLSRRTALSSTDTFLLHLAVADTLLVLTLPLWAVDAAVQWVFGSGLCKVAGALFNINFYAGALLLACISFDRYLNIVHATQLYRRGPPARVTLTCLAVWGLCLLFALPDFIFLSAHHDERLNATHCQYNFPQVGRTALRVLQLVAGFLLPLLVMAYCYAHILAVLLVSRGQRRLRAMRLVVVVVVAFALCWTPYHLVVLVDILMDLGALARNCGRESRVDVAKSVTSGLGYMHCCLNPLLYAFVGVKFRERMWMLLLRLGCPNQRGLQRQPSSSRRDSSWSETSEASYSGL
Method: as §4, §5, §6

[5] = Metabolic stabilities in hepatic microsomes; assay type: in vitro ADME; conditions: pH 7.4; hepatic microsomes 0.5 mg/ml, compound 1 μM; read-out: Half-life time
Method: Hepatic microsomes (Becton Dickinson) were incubated at a protein concentration of 0.5 mg/ml in the reaction medium.
The reaction medium of the microsomes was composed of phosphate buffer, pH: 7.4 at 100 mM, of MgCl2 at 100 mM (50/50), of an […] composed of a mixture of […] (NADP) and of glucose-6-phosphate (G6P) at 1 mg/ml and of glucose-6-phosphate dehydroganase (G6PDH) at 4 U/ml. The compounds were tested at 1 μM (0.1% DMSO).
The samples of incubation medium after addition of the microsomes were taken at times 5, 10, 15, 30 and 60 minutes. At each time, the metabolic reaction was stopped by adding methanol (1 volume incubation medium/3 volumes of methanol). The disappearance of the parent product was measured by LC/MS/MS analysis. The time for which 50% of parent Product disappeared (T½) was calculated from the kinetics of disappearance of the parent product as a function of time.

[6] = Metabolic stabilities in hepatocytes; assay type: in vitro ADME; conditions: human hepatocytes, compound 1 μM; read-out: Half-life time
Method: The human hepatocytes were supplied by Biopredic in 24-well plates.
At each time, the metabolic reaction was stopped by adding methanol (1 volume incubation medium/3 volumes of methanol). The disappearance of the parent product was measured by LC/MS/MS analysis. The time for which 50% (T½) of parent product disappeared was calculated from the kinetics of disappearance of the parent product as a function of time.

[7] = test system: receptors of CXCR1 and CXCR2 type; conditions: pseudo-irreversible dissociation, JPET 322:477-485, 2007; cited from earlier work

Sequence of CXCR1 receptor (P25024 whole entry): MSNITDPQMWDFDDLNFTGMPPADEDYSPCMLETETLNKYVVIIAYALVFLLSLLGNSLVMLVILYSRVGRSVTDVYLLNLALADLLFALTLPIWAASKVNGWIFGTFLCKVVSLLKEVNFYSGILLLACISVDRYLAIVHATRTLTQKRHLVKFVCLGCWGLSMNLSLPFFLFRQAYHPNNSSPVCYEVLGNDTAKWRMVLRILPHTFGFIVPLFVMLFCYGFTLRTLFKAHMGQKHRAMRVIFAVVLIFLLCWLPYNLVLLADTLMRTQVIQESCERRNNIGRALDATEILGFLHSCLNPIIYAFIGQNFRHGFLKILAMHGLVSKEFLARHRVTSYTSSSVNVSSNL

Compound | melting point | IC50 [1] | IC50 [2] | other results
Cc1ccc(C(Nc2c(Nc3cccc(C(=O)N(C)C)c3O)c(=O)c2=O)C2(CF)COC2)o1 (stereo not shown) [Example 2, 3-(2-{[(3-fluoromethyloxetan-3-yl)-(5-methyl-furan-2-yl)methyl}amino]-3,4-dioxocyclobut-1-enylamino)-2-hydroxy-N,N-dimethylbenzamide] | 186 to 188 °C | 1600 nM | 272 nM | –
Cc1ccc(C(Nc2c(Nc3cccc(S(=O)(=O)N(C)C)c3O)c(=O)c2=O)C2(C)COC2)o1 (stereo not shown) [Example 21, 2-hydroxy-N,N-dimethyl-3-(2-{[(5-methylfuran-2-yl)-(3-methyloxetan-3-yl)methyl]amino}-3,4-dioxocyclobut-1-enylamino)benzenesulfonamide] | – | 1440 nM | 257 nM | half-life at 1 μM [5]: 7.7 min
Cc1ccc(C(Nc2c(Nc3cccc4nn[nH]c34)c(=O)c2=O)C2(C)COC2)o1 (stereo not shown) [Example 23, 3-(3H-benzotriazol-4-ylamino)-4-{[(5-methylfuran-2-yl)-(3-methyloxetan-3-yl)methyl]amino}cyclobut-3-ene-1,2-dione] | 178 to 180 °C | – | – | –
Cc1cc(C(Nc2c(Nc3cccc(C(=O)N(C)C)c3O)c(=O)c2=O)C2(C)COC2)oc1C (stereo not shown) [Example 27, 3-(2-{[(4,5-dimethylfuran-2-yl)-(3-methyloxetan-3-yl)methyl]amino}-3,4-dioxocyclobut-1-enylamino)-2-hydroxy-N,N-dimethylbenzamide] | 207 to 209 °C | 1540 nM | 244 nM | –
Cc1ccc(C(Nc2c(Nc3cccc(C(=O)N4CCC(O)C4)c3)c(=O)c2=O)C2(C)COC2)o1 (stereo not shown) [Example 31, 3-[3-(3-hydroxypyrrolidine-1-carbonyl)phenylamino]-4-{[(5-methylfuran-2-yl)-(3-methyloxetan-3-yl)methyl]amino}cyclobut-3-ene-1,2-dione] | 242 to 245 °C | 3530 nM | 716 nM | –
Cc1ccc([C@H](Nc2c(Nc3cccc(C(=O)N(C)C)c3O)c(=O)c2=O)C2(C)COC2)o1 [Example 50, 2-hydroxy-N,N-dimethyl-3-(2-{[((R)-5-methylfuran-2-yl)-(3-methyloxetan-3-yl)methyl]amino}-3,4-dioxocyclobut-1-enylamino)benzamide] | – | – | – | IC50 [4]: 700 nM
Cc1ccc([C@H](Nc2c(Nc3ccc(Cl)c(C(=O)N(C)C)c3O)c(=O)c2=O)C2(C)COC2)o1 [Example 52, 6-chloro-2-hydroxy-N,N-dimethyl-3-(2-{[(R)-(5-methylfuran-2-yl)-(3-methyloxetan-3-yl)methyl]amino}-3,4-dioxocyclobut-1-enylamino)benzamide] | – | 897 nM | 373 nM | –
Cc1ccc([C@H](Nc2c(Nc3ccc(Cl)c(S(=O)(=O)N4CCN(C)CC4)c3O)c(=O)c2=O)C2(C)COC2)o1 [Example 53, 3-[4-chloro-2-hydroxy-3-(4-methylpiperazine-1-sulfonyl)phenylamino]-4-{[(R)-(5-methylfuran-2-yl)-(3-methyloxetan-3-yl)methyl]amino}cyclobut-3-ene-1,2-dione] | – | 115 nM | 30 nM | IC50 [3]: 450 nM; IC50 [4]: 920 nM; half-life at 1 μM [6]: 186 min; half-life at 1 μM [5]: 47 min
CC[C@@H](Nc1c(Nc2cccc(C(=O)N(C)C)c2O)c(=O)c1=O)c1ccc(C)o1 [SCH-527123] | – | – | – | dissociation time [7]: about 22 h

More lines, main results first:

melting point | IC50 [1] | IC50 [2] | Compound | other results
130 to 132 °C | – | – | COC(=O)C1CCCCN1C(=O)c1cccc(Nc2c(NC(c3ccc(C)o3)C3(C)COC3)c(=O)c2=O)c1 (stereo not shown) | –
196 to 198 °C | – | – | Cc1ccc(C(Nc2c(Nc3cccc(C(=O)N(C)C)c3O)c(=O)c2=O)C2(C)COC2)o1 (stereo not shown) [Example 1, 2-hydroxy-N,N-dimethyl-3-(2-{[(5-methylfuran-2-yl)-(3-methyloxetan-3-yl)methyl]amino}-3,4-dioxocyclobut-1-enylamino)benzamide] | –
180 to 185 °C | – | – | Cc1ccc(C(Nc2c(Nc3cccc(C(=O)O)c3O)c(=O)c2=O)C2(C)COC2)o1 (stereo not shown) [Example 4, 2-hydroxy-3-(2-{[(5-methylfuran-2-yl)-(3-methyloxetan-3-yl)methyl]amino}-3,4-dioxocyclobut-1-enylamino)benzoic acid] | –
162 to 164 °C | 2410 nM | 100 nM | Cc1ccc(C(Nc2c(Nc3cccc(C(=O)N4CCC[C@@H]4C(=O)OC(C)(C)C)c3O)c(=O)c2=O)C2(C)COC2)o1 (stereo partly drawn) [Example 7, (R)-1-[2-hydroxy-3-(2-{[(5-methylfuran-2-yl)-(3-methyloxetan-3-yl)methyl]amino}-3,4-dioxocyclobut-1-enylamino)benzoyl]pyrrolidine-2-carboxylic acid tert-butyl ester] | –
– | 604 nM | 37 nM | COC(=O)[C@H]1CCCN1C(=O)c1cccc(Nc2c(N[C@@H](c3ccc(C)o3)C3(C)COC3)c(=O)c2=O)c1O [Example 8, methyl (R)-1-[2-hydroxy-3-(2-{[(R)-(5-methylfuran-2-yl)-(3-methyloxetan-3-yl)methyl]amino}-3,4-dioxocyclobut-1-enylamino)benzoyl]pyrrolidine-2-carboxylate] | IC50 CCR4 [3]: IA; IC50 [4]: 240 nM
129 to 131 °C | 6510 nM | 549 nM | Cc1ccc(C(Nc2c(Nc3cccc(C(C)O)c3O)c(=O)c2=O)C2(C)COC2)o1 (stereo not shown) [Example 11, 3-[2-hydroxy-3-(1-hydroxyethyl)phenylamino]-4-{[(5-methylfuran-2-yl)-(3-methyloxetan-3-yl)methyl]amino}cyclobut-3-ene-1,2-dione] | –
162 to 165 °C | – | – | Cc1ccc(C(Nc2c(Nc3cccc(C(=O)N(C)C)c3O)c(=O)c2=O)C2(C)CN(C(=O)OC(C)(C)C)C2)o1 (stereo not shown) [Example 26, tert-butyl 3-[[2-(3-dimethylcarbamoyl-2-hydroxyphenylamino)-3,4-dioxo-cyclobut-1-enylamino]-(5-methylfuran-2-yl)methyl]-3-methylazetidine-1-carboxylate] | –
148 to 158 °C | – | – | COC(=O)[C@@H]1CCCN1C(=O)c1cccc(Nc2c(NC(c3ccc(C)o3)C3(C)COC3)c(=O)c2=O)c1Cl (stereo partly drawn) [Example 46, methyl (S)-1-[2-chloro-3-(2-{[(5-methylfuran-2-yl)-(3-methyloxetan-3-yl)methyl]amino}-3,4-dioxocyclobut-1-enylamino)benzoyl]pyrrolidine-2-carboxylate] | –
– | 650 nM | 72 nM | COC(=O)CN(C)C(=O)c1cccc(Nc2c(N[C@@H](c3ccc(C)o3)C3(C)COC3)c(=O)c2=O)c1O [Example 51, methyl {[2-hydroxy-3-(2-{[(R)-(5-methylfuran-2-yl)-(3-methyloxetan-3-yl)methyl]amino}-3,4-dioxocyclobut-1-enylamino)benzoyl]methylamino}acetate] | –
